Molecules are shown by their SMILES.

As for `CCCSc1ncc(C[C@H](NC(=O)CCC)C(=O)O)n1Cc1ccccc1Cl` [Example 1, 3-[(2-Chlorophenyl)methyl]-2-propylthio-N -butyrylhistidine], the melting point (as a rule, the temperature, or range, at which the solid turns liquid) lay in the range of 178 to 181 °C.
`CCCCc1nc2cc(Br)cc(C(=O)O)c2n1Cc1ccccc1Cl` [Example 4, 5-Bromo-2-n-butyl-1-(2-chlorophenyl)methyl-1H -benzimidazole-7-carboxylic Acid] displayed a melting point of 254 to 255 °C.
